Test results as given in US10870635B2, “Compounds and their use as BACE1 inhibitors” (ALLGENESIS BIOTHERAPEUTICS, INC., priority 2015, dated 2020).

Assays:
[1] = target: BACE1 (recombinant β-secretase enzyme) (Homo sapiens (Human), UniProt P56817); assay: AnaSpec BACE1 fluorescent assay (beta-secretase activity assay); type: biochemical
Protocol: A BACE1 activity assay kit from AnaSpec (Fremont, Calif.) was used to determine the potency of the selected BACE1 inhibitors by AnaSpec BACE1 fluorescent assay. The recombinant β-secretase enzyme was diluted 1:200 in 1× assay buffer (1 part of 1× assay buffer and 1 part of TBS containing 0.1% Tween 20). The enzyme was added in a volume of 40 μl to each well of a black 96-well micro plate.
The BACE1 inhibitors were serially diluted into DMSO from their 10 mM stock concentrations in DMSO. The serially diluted inhibitors were diluted 1:100 into 1× assay buffer in a 96-well polypropylene plate (assay dilution plate). The final concentration of the BACE1 inhibitor tested was 300 nM, 100 nM, 30 nM, 10 nM, 3 nM, 1 nM 0.3 nM, and 0.00 nM. Dose responses for inhibitors were run in duplicate.
A volume of 10 μl of the inhibitor from the assay dilution plate, a control inhibitor LY2886721 or inhibitor vehicle was then added to each well of the black 96-well micro plate containing BACE1.
(§1) To each well of the black 96-well micro plate, 50 μl of the β-secretase substrate (Hylite Fluor 488) diluted 1:100 using assay buffer was added. The reagents were mixed gently and the assay plate was placed into a POLARstar fluorescent plate reader with excitation wavelength set at 485 nm and the emission wavelength set at 520 nm. The plate reader was set to take readings every 5 minutes for up to 30 minutes or a 30 minute endpoint reading was used.
An appropriate integrated first-order rate equation was used to fit the data accumulated over a 30-40 minute collection period.

[2] = target: Human recombinant cathepsin D (Homo sapiens (Human), UniProt P07339); assay: Cathepsin D activity assay; type: biochemical; details: read-out: CatD IC50
Chain of Human recombinant cathepsin D (P07339 65-412): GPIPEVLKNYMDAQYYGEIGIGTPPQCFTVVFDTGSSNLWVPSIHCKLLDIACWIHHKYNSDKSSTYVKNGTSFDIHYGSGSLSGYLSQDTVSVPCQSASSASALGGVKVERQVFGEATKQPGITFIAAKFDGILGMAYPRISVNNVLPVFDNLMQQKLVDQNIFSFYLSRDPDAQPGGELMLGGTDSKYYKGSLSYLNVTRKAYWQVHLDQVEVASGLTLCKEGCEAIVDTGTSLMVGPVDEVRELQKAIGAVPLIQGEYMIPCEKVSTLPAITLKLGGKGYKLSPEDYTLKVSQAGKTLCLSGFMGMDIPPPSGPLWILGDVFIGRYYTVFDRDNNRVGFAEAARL
Protocol: The development of a CatD activity assay is used to determine any potential cross reactivity for compounds selected from the β-secretase activity assay and to determine the selectivity to BACE1 inhibition. The CatD activity is reported for assessing target selectivity ratio (CatD IC50/BACE1 IC50).
The reagents for the cathepsin D assay were prepared as follows.
Human recombinant cathepsin D stored frozen in 2.0 μl aliquots was thawed and 42 μl of enzyme buffer (0.1M NaOAC, 0.2 M NaCl, pH 3.5) was added and incubated at 37° C. for 30 minutes. After 30 minutes the enzyme was further diluted to a final volume of 4.4 ml in enzyme buffer containing 5.0 mM DTT for immediate use in the cathepsin D assay.
The 7-methoxycoumarin-labeled peptide substrate (ES010) for cathepsin D was supplied as a 6.2 mM stock in DMSO. For use in the cathepsin D assay, the 6.2 mM stock was diluted to a 1.55 mM stock with DMSO. The 1.55 mM peptide stock in DMSO was further diluted 1:100 in reaction buffer (0.1M NaOAC, 0.2M NaCl, 0.1% Tween 20, 5.0 mM DTT, pH3.5) to create a 15.5 μM stock for use in the assay.
DMSO without compound served as a DMSO vehicle control for the cathepsin D assay. For each test compound, 30 μl of each dilution was pipetted into a separate well of a 96-well polypropylene plate. This polypropylene plate was labeled as the DMSO dilution plate and a plate map of test compound locations was made.
Test compounds from the DMSO dilution plate require a 1:100 dilution into reaction buffer before they can be added to the cathepsin D assay plate. To accomplish the 1:100 dilution of test compounds, 2.0 μl of each test compound at each concentration was pipetted from the DMSO dilution plate (using a multi-channel pipette calibrated to accurately dispense a 2.0 μl volume) into a new 96-well polypropylene plate using the plate map created for the DMSO dilution plate. This 96-well plate served as the inhibitor dilution plate. Next, 198 μl of reaction buffer was pipetted into each well of the inhibitor dilution plate (using a multi-channel pipette calibrated for accurate delivery of a 198 μl volume) and the pipetted test compound mixed by gentle up and down pipetting.
A1.0 mM stock of pepstatin A was made in DMSO and aliquotted into 5.0 μl samples for freezing and storage at −20° C. Upon thawing, 45 μl of DMSO (1:10 dilution) was added to create a 100 μM stock of pepstatin A in DMSO. The 100 μM Pepstatin A stock was further diluted 1:10 with DMSO to create a 10 μM stock in DMSO. […]
The assay plate was placed into a fluorescent plate reader with the excitation wavelength set at 320 nm and the emission wavelength set at 405 nm. Readings were collected every minute over a 30 minute collection period.

recombinant BACE2 = recombinant BACE2 (Homo sapiens (Human), UniProt Q9Y5Z0); assay: AnaSpec BACE2 fluorescent assay; type: biochemical
Chain of recombinant BACE2 (Q9Y5Z0 63-518): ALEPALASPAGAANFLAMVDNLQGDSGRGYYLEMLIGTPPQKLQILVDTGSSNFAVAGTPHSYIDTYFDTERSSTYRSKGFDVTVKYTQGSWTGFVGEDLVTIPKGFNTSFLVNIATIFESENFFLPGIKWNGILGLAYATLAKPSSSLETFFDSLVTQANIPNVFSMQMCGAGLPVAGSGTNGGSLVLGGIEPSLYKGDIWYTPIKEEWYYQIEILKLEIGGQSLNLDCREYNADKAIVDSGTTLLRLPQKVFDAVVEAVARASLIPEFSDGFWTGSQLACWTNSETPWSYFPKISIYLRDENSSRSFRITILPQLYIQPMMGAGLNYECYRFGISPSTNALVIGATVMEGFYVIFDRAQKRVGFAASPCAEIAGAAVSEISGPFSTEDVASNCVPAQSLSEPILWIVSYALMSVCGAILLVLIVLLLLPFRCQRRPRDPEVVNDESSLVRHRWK
Protocol: A BACE2 activity assay kit from AnaSpec (Fremont, Calif.) was used to determine the potency of the selected compounds by AnaSpec BACE2 fluorescent assay. To each well of a black 96-well micro plate, 50 μl of the β-secretase substrate (Hylite Fluor 488) diluted 1:100 using assay buffer was first added.
The compounds were serially diluted (1:2) into DMSO from their 10 mM stock concentrations in DMSO. The serially diluted inhibitors were diluted 1:100 into 1× assay buffer in a 96-well polypropylene plate (assay dilution plate). The final concentration of these compounds tested was 300 nM, 150 nM, 75 nM, 37.5 nM, 18.75 nM, 9.375 nM, 4.688 nM, 2.344 nM, 1.172 nM, 0.586 nM, and 0.293 nM.
A volume of 10 μl of the inhibitor from the assay dilution plate, a control inhibitor LY2886721 or inhibitor vehicle was then added to each well of the black 96-well micro plate.
The recombinant BACE2 was diluted in an assay buffer and the final BACE2 was 10.6 nM. The enzyme was added in a volume of 40 μl to each well of a black 96-well micro plate.
as §1, with “The” for “To each well of the black 96-well micro plate, 50 μl of the β-secretase substrate (Hylite Fluor 488) diluted 1:100 using assay buffer was added. The”
An appropriate integrated first-order rate equation was used to fit the data accumulated over a 30-40 minute collection period. Dose responses for inhibitors were run in duplicate.

[3] = animal toxicology study; cited from earlier work
[4] = in humans; cited from earlier work
[5] = system: CSF Aβ40, Aβ42 and soluble APPβ; details: AD patients, reported by Merck; cited from earlier work

Chain of BACE1 (recombinant β-secretase enzyme) (P56817 46-501): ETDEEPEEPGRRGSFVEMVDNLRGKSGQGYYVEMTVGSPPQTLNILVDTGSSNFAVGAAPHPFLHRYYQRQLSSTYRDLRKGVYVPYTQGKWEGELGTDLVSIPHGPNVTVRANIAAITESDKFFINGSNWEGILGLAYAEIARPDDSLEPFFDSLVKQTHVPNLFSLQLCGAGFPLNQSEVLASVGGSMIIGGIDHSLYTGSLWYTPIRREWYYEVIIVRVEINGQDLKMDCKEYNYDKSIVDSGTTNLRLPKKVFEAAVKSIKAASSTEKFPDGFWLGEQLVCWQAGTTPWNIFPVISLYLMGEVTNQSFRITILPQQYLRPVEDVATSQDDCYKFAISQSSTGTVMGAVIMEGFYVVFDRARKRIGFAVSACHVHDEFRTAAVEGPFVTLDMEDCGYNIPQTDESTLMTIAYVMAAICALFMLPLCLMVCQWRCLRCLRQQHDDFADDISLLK

IC50 [1] [nM]	IC50 [2] [µM]	IC50 (recombinant BACE2) [nM]	Structure (SMILES)	also measured
26	12.3	–	CC#Cc1ccc2sc3ccc([C@]4(C)CC(=O)N(C)C(=N)N4)cc3c2c1 [Example 1, (S)-2-Imino-3,6-dimethyl-6-(8-(prop-1-yn-1-yl)dibenzo[b,d]thiophen-2-yl)tetrahydropyrimidin-4(1H)-one]	–
44	–	24	CC#Cc1ccc2[nH]c([C@]3(C)CC(=O)N(C)C(=N)N3)c(Cl)c2c1 [Example 38, (S)-6-(3-Chloro-5-(prop-1-yn-1-yl)-1H-indol-2-yl)-2-imino-3,6-dimethyl-tetrahydropyrimidin-4(1H)-one]	–
44	3.9	23.8 ± 1.52	CC#Cc1ccc2sc3cc(Cl)c([C@]4(C)CC(=O)N(C)C(N)=N4)cc3c2c1 [Example 71, (S)-2-Amino-6-(3-chloro-8-(prop-1-yn-1-yl)dibenzo[b,d]thiophen-2-yl)-3,6-dimethyl-5,6-dihydropyrimidin-4(3H)-one]	–
–	–	–	C[C@@]1(c2cc(-c3cncnc3)c(F)cc2F)CCSC(N)=N1 [LY-2811376]	toxicity finding leading to discontinuation [3]: retinal toxicity
–	–	–	NC1=N[C@@]2(c3cc(NC(=O)c4ccc(F)cn4)ccc3F)COC[C@H]2CS1 [LY-2886721]	toxicity finding leading to termination [4]: liver toxicity
–	–	–	CN1C(=N)N[C@](C)(c2cc(NC(=O)c3ccc(F)cn3)ccc2F)CS1(=O)=O [MK-8931]	effect on CSF Aβ40, Aβ42 and soluble APPβ [5]: reduce CSF Aβ40, Aβ42 and soluble APPβ
